Type in all cases: in vivo
Assay [1] deals with methacholine-induced bronchospasm in the rat. Briefly: Methacholine-induced bronchospasm (pulmonary ventilation pressure) in anesthetized rat. Particulars: intraduodenal; for Methacholine Bronchospasm, ED50 / ED50: 50% inhibition of bronchospasm; for inhibition in vivo at 10 mg/kg: read-out: Methacholine Bronchospasm, percent inhibition; for Methacholine Bronchospasm, percent inhibition: dose 30 mg./kg.; for inhibition in vivo at 10 mg/kg / Methacholine Bronchospasm, inactive at dose: dose 10 mg./kg. The source says:
Brochodilator activity in vivo (Table XI, column 6) was estimated by determining the dose of test compound required to inhibit methacholine-induced brochospasm in the rat. […] For this test, pulmonary ventilation pressure (PVP) was the parameter measured using anesthetized animals.

The test system of assay [2] is passive cutaneous anaphylaxis reaction (PCA) in the rat. Briefly: Passive cutaneous anaphylaxis reaction (PCA) in the rat. To be noted: for PCA, ED50 / ED50: oral; for inhibition in vivo at 50 mg/kg: oral dose 50 mg./kg. Also on record: key to PCA, inactive at dose: I: inactive at the specified dose. How it is done:
Antiallergy activity in terms of ability to inhibit the immediate hypersensitivity reaction was measured by means of the passive cutaneous anaphylaxis reaction (PCA) in the rat (Table XI, column 7). The animals were passively sensitized by the intradermal injection of rat reagenic antiserum at various locations on the shaved back skin and 48 hours later the test drug was administered. This was followed by challenge at a predetermined interval, usually 15 minutes, by intravenous injection of egg albumin and Evans' blue dye. The dermal reaction at the sensitized site was evaluated and scored by measuring the diameter of the spot generated at the sensitized intradermal injection site. The values reported in the table are either ED50 values for the test compound in terms of mg./kg. of body weight administered orally, or percent inhibition of the dose specified in parentheses.

In assay [3] the test system is rats actively sensitized with egg albumin and B. pertussis vaccine. Briefly: Allergic bronchospasm in rats actively sensitized with egg albumin. Particulars: rat, oral, egg albumin challenge, PVP. On the procedure:
Antiallergy/bronchodilator studies (Table XI, column 8) were also conducted using rats which were actively sensitized with egg albumin and B. pertussis vaccine as for preparation of the reagenic antisera in the PCA test. Fifteen days following sensitization, the animals were prepared for measurement of PVP as for the methacholine-induced bronchospasm test, and changes in PVP in response to a standardized challenge of egg albumin following treatment with test drug were measured. The values reported in the table are ED50 values in terms of mg./kg. of body weight for the test compound administered orally.

[4] abbreviates: oral dose 25 mg./kg., read-out: PCA, percent inhibition.
Where [5] appears, read: read-out: PCA, percent inhibition.
The mark [6] stands for this setting: oral dose 10 mg./kg., read-out: PCA, percent inhibition.

Some results are limits rather than exact numbers.

Turning to `O=c1c2[nH]cnc2n(Cc2ccc(Cl)cc2)c2nccn12` [Procedure 124], in assay [1], the “Methacholine Bronchospasm, ED50” value came to 8.1 mg/kg. `CC1N=C2N(Cc3ccc(Cl)cc3)c3nc[nH]c3C(=O)N2C1C` (mixture of isomers) [106(mixed)]: the “PCA, ED50” value in assay [2] was 20.3 mg/kg. Besides, in assay [3], the “Allergic Bronchospasm, ED50” value was found to be 3.51 mg/kg. Also, the “Methacholine Bronchospasm, ED50” value in assay [1] is 3.7 mg/kg. Turning to `CC(C)c1nc2c([nH]1)C(=O)N1CCN=C1N2CCOc1ccccc1` [Procedure 108], in assay [1], the ED50 – broadly, the dose that gives a 50% effect, or the effect in half of the subjects – is 4 mg/kg. Regarding `Cc1nc2c([nH]1)C(=O)N1CC(C)N=C1N2Cc1ccc(Cl)cc1` (racemic) [Procedure 101], the “PCA, ED50” value in assay [2] turned out to be 30.2 mg/kg. The “Allergic Bronchospasm, ED50” value in assay [3] was found to be 1.2 mg/kg. Moreover, the “Methacholine Bronchospasm, ED50” value in assay [1] is 1.00 mg/kg. For `CCCCCCCCN1C2=NCCN2C(=O)c2[nH]c(C(C)C)nc21` [Procedure 56], the inhibition in vivo at 25 mg/kg in assay [2] (setting [4]) is 25%. In the case of `O=C1c2[nH]cnc2N(CCCc2ccccc2)C2=NCCN12` [Procedure 62], in assay [2] (oral dose 25 mg./kg.), the “PCA, inactive at dose” value is listed as “I”. In assay [1], the inhibition in vivo at 10 mg/kg is 22%. For the compound `CCCCCCCCN1C2=NCCN2C(=O)c2[nH]c(C)nc21` [Procedure 55], the inhibition in vivo at 25 mg/kg in assay [2] (setting [4]) stood at 34.9%. Turning to `CCCCCCCCN1C2=NCCN2C(=O)c2[nH]cnc21` [Procedure 54], the “PCA, inactive at dose” value in assay [2] (oral dose 25 mg./kg.) is “I”. Same read-out and setting: then `O=C1c2[nH]cnc2N(Cc2ccccc2)C2=NCCN12` [Procedure 23], with “I”.

Turning to `O=C1c2[nH]cnc2N(Cc2ccccc2Cl)C2=NCCN12` [Procedure 6], in assay [2] (setting [5]), the inhibition in vivo at 50 mg/kg came out at 25%. Compound `Cn1c(Br)nc2c1C(=O)N1CCN=C1N2Cc1ccc(Cl)cc1` [Procedure 46] came in with an ED50 in assay [1] greater than 30 mg/kg. For the compound `Cn1cnc2c1C(=O)N1CCN=C1N2Cc1ccc(Cl)cc1` [Procedure 67], in assay [2] (oral dose 25 mg./kg.), the “PCA, percent inhibition” value came to 26%. Besides, the “Methacholine Bronchospasm, ED50” value in assay [1] was 8.8 mg/kg.

As for `S=C1c2[nH]cnc2N(Cc2ccc(Cl)cc2)C2=NCCN12` [Procedure 75], the “PCA, inactive at dose” value in assay [2] (oral dose 25 mg./kg.) is listed as “I”. In assay [1], the “Methacholine Bronchospasm, percent inhibition” value was found to be 21%. In the case of `Cc1nc2c(n1C)C(=O)N1CCN=C1N2Cc1ccc(Cl)cc1` [Procedure 117], in assay [1], the 50% effective dose (ED50) amounted to 5.7 mg/kg. Take `COc1ccccc1CN1C2=NCCN2C(=O)c2[nH]cnc21` [Procedure 9]: the “PCA, inactive at dose” value in assay [2] (oral dose 10 mg./kg.) is recorded as “I”. For the compound `Cc1nc2c([nH]1)C(=O)N1CCN=C1N2Cc1ccc(Cl)cc1` [Procedure 15], the inhibition in vivo at 30 mg/kg in assay [2] (oral dose 30 mg./kg., read-out: PCA, percent inhibition) is 40%. The same compound gave an ED50 in assay [1] of 1.79 mg/kg. Regarding `CC1CN2C(=O)c3[nH]cnc3N(Cc3ccc(Cl)cc3)C2=N1` (racemic) [Procedure 100], the “PCA, ED50” value in assay [2] was found to be 10.6 mg/kg. Further, in assay [3], the “Allergic Bronchospasm, ED50” value came to 1.5 mg/kg. The “Methacholine Bronchospasm, ED50” value in assay [1] worked out at 2.1 mg/kg. As for `COc1ccc(CCN2C3=NCCN3C(=O)c3[nH]cnc32)cc1OC` [Procedure 11], in assay [2] (setting [6]), the inhibition in vivo at 10 mg/kg is 25%. For the compound `O=C1c2c(ncn2Cc2ccc(F)cc2)N(Cc2ccc(F)cc2)C2=NCCN12` [Procedure 44], the “PCA, inactive at dose” value in assay [2] (oral dose 10 mg./kg.) is “I”. In addition, in assay [1], the inhibition in vivo at 10 mg/kg worked out at 0%.

Consider `COc1ccc(CCN2C3=NCCN3C(=O)c3[nH]nnc32)cc1OC` [Procedure 26], for which the inhibition in vivo at 10 mg/kg in assay [2] (setting [6]) amounted to 41%.

`O=C1c2[nH]cnc2N(Cc2ccccn2)C2=NCCN12` [Procedure 10]: the inhibition in vivo at 25 mg/kg in assay [2] (setting [4]) came to 40%.

`CC(C)CN1C2=NC(C)CN2C(=O)c2[nH]cnc21` (centres unmarked) [Procedure 109] gave an ED50 in assay [1] of 4.6 mg/kg.

As to `O=C1c2[nH]nnc2N(Cc2ccc(Cl)c(Cl)c2)C2=NCCN12` [Procedure 28], the “PCA, inactive at dose” value in assay [2] (oral dose 10 mg./kg.) is “I”. In the case of `O=C1c2[nH]nnc2N(Cc2ccc(Cl)cc2)C2=NCCN12` [Procedure 25], in assay [2] (oral dose 10 mg./kg.), the “PCA, inactive at dose” value is given as “I”. Turning to `O=C1c2[nH]nnc2N(CCOc2ccccc2)C2=NCCN12` [Procedure 74], the “PCA, inactive at dose” value in assay [2] (oral dose 25 mg./kg.) was “I”. In addition, the “Methacholine Bronchospasm, inactive at dose” value in assay [1] was “I”. In the case of `CC(C)CN1C2=NCCN2C(=O)c2[nH]cnc21` [Procedure 13], the “PCA, inactive at dose” value in assay [2] (oral dose 25 mg./kg.) is “I”. Besides, the inhibition in vivo at 10 mg/kg in assay [1] was 63%. Consider `O=C1c2[nH]nnc2N(Cc2ccc(F)cc2)C2=NCCN12` [Procedure 27], for which it took a dose of 17.7 mg/kg to reach the 50% effect level in assay [2] (ED50). Besides, the inhibition in vivo at 10 mg/kg in assay [1] stood at 30%. `N=C1c2[nH]cnc2N(Cc2ccc(Cl)cc2)C2=NCCN12` [Procedure 77]: in assay [1], the “Methacholine Bronchospasm, percent inhibition” value is 22%. `CC1N=C2N(Cc3ccc(Cl)cc3)c3nc[nH]c3C(=O)N2C1C` (stereo not drawn) [106(trans)]: the “PCA, ED50” value in assay [2] was found to be 35.5 mg/kg. For the same compound, the “Methacholine Bronchospasm, ED50” value in assay [1] was 5.0 mg/kg. For `O=C1c2[nH]cnc2N(Cc2ccc(F)cc2)C2=NCCN12` [Procedure 8], the inhibition in vivo at 10 mg/kg in assay [2] (setting [6]) is 29%; in assay [1], 55.5%.

Consider `O=C1c2[nH]c(Br)nc2N(Cc2ccc(Cl)cc2)C2=NCCN12` [Procedure 17], for which the inhibition in vivo at 25 mg/kg in assay [2] (setting [4]) came to 34%. With `CC1N=C2N(Cc3ccc(Cl)cc3)c3nc[nH]c3C(=O)N2C1C` (stereo not drawn) [106(cis)], in assay [2], the “PCA, ED50” value worked out at 28.5 mg/kg. Moreover, the “Methacholine Bronchospasm, ED50” value in assay [1] came to 3.0 mg/kg. For `Cn1c(=O)c2[nH]cnc2n(C)c1=O` [Theophylline, reference compound], the ED50 is 41.5 mg/kg in assay [2] and 19.2 mg/kg in assay [1].

With `CC1CN2C(=O)c3c(ncn3C)N(Cc3ccc(Cl)cc3)C2=N1` (racemic) [Procedure 102], the “PCA, ED50” value in assay [2] was determined as 28.9 mg/kg. Further, the “Allergic Bronchospasm, ED50” value in assay [3] was determined as 3.4 mg/kg. Also, the “Methacholine Bronchospasm, ED50” value in assay [1] came to 1.1 mg/kg.

Consider `O=C1c2[nH]cnc2N(Cc2ccc(Cl)c(Cl)c2)C2=NCCN12` [Procedure 7], for which, in assay [2] (oral dose 25 mg./kg.), the “PCA, inactive at dose” value is “I”.

Consider `CC(C)c1nc2c([nH]1)C(=O)N1CCN=C1N2Cc1ccccc1Cl` [Procedure 16], for which the “PCA, inactive at dose” value in assay [2] (oral dose 25 mg./kg.) was “I”.

`CCc1nc2c([nH]1)C(=O)N1CCN=C1N2Cc1ccc(Cl)cc1` [Procedure 14]: the inhibition in vivo at 50 mg/kg in assay [2] (setting [5]) amounted to 29%. Also, the inhibition in vivo at 10 mg/kg in assay [1] turned out to be 26%. Take `O=C1c2[nH]cnc2N(CCc2ccc(Cl)cc2)C2=NCCN12` [Procedure 60]: the “PCA, inactive at dose” value in assay [2] (oral dose 25 mg./kg.) was “I”. Further, in assay [1], the “Methacholine Bronchospasm, inactive at dose” value is listed as “I”. For `O=C1c2[nH]cnc2N(CC2CCCCC2)C2=NCCN12` [Procedure 59], in assay [2] (setting [4]), the inhibition in vivo at 25 mg/kg is 29%. For the same compound, the inhibition in vivo at 10 mg/kg in assay [1] stood at 45.8%. For `CCCCn1cnc2c1C(=O)N1CCN=C1N2Cc1ccc(Cl)cc1` [Procedure 24], in assay [2] (oral dose 10 mg./kg.), the “PCA, inactive at dose” value is “I”. Also, the inhibition in vivo at 10 mg/kg in assay [1] stood at 16%.

`Cc1nc2c([nH]1)C(=O)N1CCN=C1N2CC(C)C` [Procedure 63]: the figures for the ED50 in assay [2], in assay [3] (Bordetella pertussis) and in assay [1] were 33.9 mg/kg, 5.4 mg/kg and 3.3 mg/kg, respectively. Take `CC(C)C(=O)N1C2=NCCN2C(=O)c2[nH]c(C(C)C)nc21` [Procedure 20]: the inhibition in vivo at 25 mg/kg in assay [2] (setting [4]) came to 46%.

As to `O=C1c2[nH]cnc2N(Cc2cccc(Cl)c2)C2=NCCN12` [Procedure 5], the inhibition in vivo at 50 mg/kg in assay [2] (setting [5]) amounted to 43%. Moreover, the inhibition in vivo at 10 mg/kg in assay [1] is 64%. Regarding `O=C1c2[nH]cnc2N(CCOc2ccc(Cl)cc2)C2=NCCN12` [Procedure 57], in assay [2] (setting [4]), the inhibition in vivo at 25 mg/kg turned out to be 31.7%. Also, the inhibition in vivo at 10 mg/kg in assay [1] is 66%. In the case of `CC(C)CN1C2=NCCN2C(=O)c2c1ncn2CCOc1ccccc1` [Procedure 39], the “PCA, inactive at dose” value in assay [2] (oral dose 25 mg./kg.) is “I”. In assay [1], the inhibition in vivo at 10 mg/kg is 34.7%.
